# Measurements taken from article PMC6684654 (Nature Communications, 2019).
# Where “and” joins values, the source holds several entries; their conditions need not be identical. Equal values may be shown once. Read-outs that look alike come from different tables or passages of the source. Bridge positions count the residues as written; N and C are the ends. Ends that are not written are not given here.
# T1: New Delhi metallo-β-lactamase-1 (NDM-1), without signal peptide, amino-terminal histidine tag (RED-tris-NTA second-generation dye on the His-tag (in the MST assay))
# T1 construct: NDM-1 with the signal peptide deleted; also called apo-NDM-1; purified NDM-1; source: E. coli BL21 (DE3), pET30a, purified (Ni-IDA); apo form by dialysis against EDTA; not shown: His6, N-terminal, kept
# T1 chain: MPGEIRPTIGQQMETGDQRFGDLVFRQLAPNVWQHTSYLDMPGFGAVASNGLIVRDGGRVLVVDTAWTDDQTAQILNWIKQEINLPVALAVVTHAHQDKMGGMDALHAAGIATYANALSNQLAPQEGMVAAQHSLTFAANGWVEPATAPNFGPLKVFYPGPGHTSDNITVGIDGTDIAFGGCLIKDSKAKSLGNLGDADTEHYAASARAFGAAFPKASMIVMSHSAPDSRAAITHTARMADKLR
# Tests used:
# [1] = test system: NDM-1 K. pneumoniae XJ155017; assay: Antibiotic susceptibility (MIC), automated identification system; format: cell-based; details: Supplementary Table 2; for MIC: Klebsiella pneumoniae
# Text: (§1) Clinical isolate strains were identified and screened by the Phoenix 100 automated bacterial identification system to rapidly detect antimicrobial resistance. Total DNA was extracted by the TIANamp Bacteria DNA Kit according to the manufacturer’s protocol. The presence of blaNDM-1 was confirmed using a diagnostic kit for NDM-1 (Puruikang Bio Inc., Shenzhen, China) based on fluorescent quantitative polymerase chain reaction assay. According to the instruction, Ct values of less than 37 were considered positive.
# NDM-1 E. coli XJ141015 [2] = assay: as above; format: cell-based; details: Supplementary Table 1; for MIC: Escherichia coli
# Text: as §1
# K. pneumoniae ATCC13883 [3] = assay: as above; format: cell-based; details: Supplementary Table 2; for MIC: Klebsiella pneumoniae, ATCC13883
# Text: as §1
# [4] = test system: NDM-1 K. pneumoniae XJ155019; assay: as above; format: cell-based; details: Supplementary Table 2; for MIC: Klebsiella pneumoniae
# Text: as §1
# [5] = test system: NDM-1 K. pneumoniae XJ155020; assay: as above; format: cell-based; details: Supplementary Table 2; for MIC: Klebsiella pneumoniae
# Text: as §1
# NDM-1 E. coli XJ141047 [6] = assay: as above; format: cell-based; details: Supplementary Table 1; for MIC: Escherichia coli
# Text: as §1
# [7] = test system: NDM-1 K. pneumoniae XJ155018; assay: as above; format: cell-based; details: Supplementary Table 2; for MIC: Klebsiella pneumoniae
# Text: as §1
# NDM-1 E. coli XJ141026 [8] = assay: as above; format: cell-based; details: Supplementary Table 1; for MIC: Escherichia coli
# Text: as §1
# E. coli ATCC25922 [9] = assay: as above; format: cell-based; details: Supplementary Table 1; for MIC: Escherichia coli, ATCC25922
# Text: as §1
# [10] = test system: seven NDM-1-producing strains; assay: Checkerboard assay / FIC, summary; format: cell-based, E. coli; K. pneumoniae; details: in combination with thanatin
# Method: (§2) Synergy in vitro was assessed by checkerboard assays. […] Following incubation, the synergistic/additive effect was determined by calculating the FIC indices (FICI) according to the formula: FICI = (MIC of A in combination/MIC of A) + (MIC of B in combination/MIC of B). The synergy or additive was defined according to standard criteria (FICI ≤ 0.5 was defined as synergistic; 0.5 < FICI ≤ 1 was defined as additive; 1 < FICI ≤ 4 was defined as indifference; FICI > 4 was defined as antagonism)[39].
# NDM-1 [11] = target: T2, NDM-1 (Klebsiella pneumoniae, UniProt C7C422); details: reported Km for imipenem; ref 15 (Yuan Q, He L, Ke H, 2012); cited from earlier work
# T2 sequence (C7C422 20-270, looked up, natural form): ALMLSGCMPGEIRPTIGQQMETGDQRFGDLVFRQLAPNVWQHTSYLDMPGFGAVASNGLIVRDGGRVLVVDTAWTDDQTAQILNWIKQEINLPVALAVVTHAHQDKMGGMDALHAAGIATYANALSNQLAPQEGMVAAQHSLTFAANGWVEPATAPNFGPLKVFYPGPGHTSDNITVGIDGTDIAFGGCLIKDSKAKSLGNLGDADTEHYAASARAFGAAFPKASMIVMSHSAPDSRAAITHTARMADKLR
# [12] = test system: NDM-1 K. pneumoniae XJ155017; assay: MIC, broth microdilution; format: cell-based; details: Klebsiella pneumoniae, 16 h
# Text: (§3) MIC values were identified through microdilution in sterilized 96-well polypropylene microtiter plates according to the broth microdilution guideline of the Clinical and Laboratory Standards Institute[30]. The test medium was Mueller–Hinton broth (MHB), and the strain concentrations were adjusted to 5 × 10^5 CFU/mL.
# NDM-1 E. coli XJ141015 [13] = assay: MIC, broth microdilution; format: cell-based; details: Escherichia coli; MHB, 5 × 10^5 CFU/mL, 16 h, 37 °C; read-out: MIC
# Text: as §3
# K. pneumoniae ATCC13883 [14] = assay: MIC, broth microdilution; format: cell-based; details: Klebsiella pneumoniae
# Text: as §3
# [15] = test system: NDM-1 K. pneumoniae XJ155019; assay: MIC, broth microdilution; format: cell-based; details: Klebsiella pneumoniae, 16 h
# Text: as §3
# [16] = test system: NDM-1 K. pneumoniae XJ155020; assay: MIC, broth microdilution; format: cell-based; details: Klebsiella pneumoniae, 16 h
# Text: as §3
# E. coli ATCC35218 = assay: MIC, broth microdilution; format: cell-based; details: Escherichia coli
# Text: as §3
# NDM-1 E. coli XJ141047 [17] = assay: MIC, broth microdilution; format: cell-based; details: Escherichia coli; MHB, 5 × 10^5 CFU/mL, 16 h, 37 °C; read-out: MIC
# Text: as §3
# [18] = test system: NDM-1 K. pneumoniae XJ155018; assay: MIC, broth microdilution; format: cell-based; details: Klebsiella pneumoniae, 16 h
# Text: as §3
# NDM-1 E. coli XJ141026 [19] = assay: MIC, broth microdilution; format: cell-based; details: Escherichia coli; MHB, 5 × 10^5 CFU/mL, 16 h, 37 °C; read-out: MIC
# Text: as §3
# E. coli ATCC25922 [20] = assay: MIC, broth microdilution; format: cell-based; details: Escherichia coli
# Text: as §3
# NDM-1 [21] = target: T2, NDM-1; details: NDM-1/Imipenem
# Method: The change in absorbance at 300 nm was monitored for 30 min in 96-well plates at 30 °C. The initial rate of reaction for each inhibitor concentration was calculated from the slope of the initial linear phase of the respective time course. The IC50 value was obtained by plotting the residual enzyme activity on imipenem (%) vs. inhibitor concentration (log10). […] The best fits were obtained with the competitive inhibition model by using the equation V0 = (Vmax × [S]) / (Km × (1 + [I] / Ki) + [S]). […] The kinetics parameters Km/Vmax/Kcat were calculated by fitting the data into the double reciprocal Lineweaver–Burk plots. GraphPad 5.0 was used for data analysis.
# [22] = test system: NDM-1-producing E. coli XJ141026; assay: Bactericidal activity of combination treatment; format: cell-based; details: Tha 0.4 μM, alone or combined, 16 h
# Method: The kill curves were determined as mentioned above to investigate the bactericidal activity of the combination treatment. […] CFUs were counted.
# [23] = test system: E. coli XJ141026-infected BALB/c mice; assay: Thanatin + meropenem in sepsis model: survival; format: in vivo, mouse (E. coli infection); details: alone or combined, single i.p. dose, n = 14
# Method: BALB/c mice were infected intraperitoneally with 8 × 10^7 CFU of E. coli XJ141026 in 0.1 mL of MHB. […] The model group was intraperitoneally injected with an equivalent volume of PBS. […] In addition, the survival rates were detected as described above.
# NDM-1 E. coli XJ141026 [24] = assay: Checkerboard assay / FIC; format: cell-based; details: Escherichia coli
# Method: as §2
# [25] = target: T1, New Delhi metallo-β-lactamase-1 …; assay: MST; RED-tris-NTA-labelled apo-NDM-1 (100 nM, mixed 1:1) with serially diluted thanatin; 50 mM HEPES pH 6.8, 0.05% Tween-20; 30 min at room temperature; Monolith NT.115 Pico, medium MST power; details: both partners purified
# [26] = target: T1, New Delhi metallo-β-lactamase-1 …; assay: cell-based or functional assay
# [27] = target: T1, New Delhi metallo-β-lactamase-1 …; assay: enzyme inhibition kinetics; 1 nM purified NDM-1 with 10 μM ZnSO4, pre-incubated 20 min at 30 °C with thanatin; imipenem 100-1600 μM; initial rates fitted to the competitive inhibition model; 50 mM HEPES, 0.05% Tween-20; details: both partners purified
# [28] = MHB, 5 × 10^5 CFU/mL, 37 °C, read-out: MIC
Molecule,MIC [1] [mg/L],susceptibility class (MIC) [1],MIC (NDM-1 E. coli XJ141015 [2]) [mg/L],susceptibility class (MIC) (NDM-1 E. coli XJ141015 [2]),MIC (K. pneumoniae ATCC13883 [3]) [mg/L],susceptibility class (MIC) (K. pneumoniae ATCC13883 [3]),MIC [4] [mg/L],susceptibility class (MIC) [4],MIC [5] [mg/L],susceptibility class (MIC) [5],MIC (NDM-1 E. coli XJ141047 [6]) [mg/L],susceptibility class (MIC) (NDM-1 E. coli XJ141047 [6]),MIC [7] [mg/L],susceptibility class (MIC) [7],MIC (NDM-1 E. coli XJ141026 [8]) [mg/L],susceptibility class (MIC) (NDM-1 E. coli XJ141026 [8]),MIC (E. coli ATCC25922 [9]) [mg/L],susceptibility class (MIC) (E. coli ATCC25922 [9]),"FIC indices, all seven strains [10]",effect of combination [10],further results
C[C@@H](O)[C@H]1C(=O)N2C(C(=O)O)=C(SCCN=CN)C[C@H]12 [Imipenem],> 8,R,> 8,R,≤ 1,S,> 8,R,> 8,R,> 8,R,> 8,R,> 8,R,≤ 1,S,≤ 1,synergistic or additive,"Km (NDM-1 [11]): 94 µM; MIC [12, 28]: > 256 mg/L; MIC (NDM-1 E. coli XJ141015 [13]): 16 mg/L; MIC (K. pneumoniae ATCC13883 [14]; ATCC13883, MHB, 5 × 10^5 CFU/mL, 16 h, 37 °C, read-out: MIC): < 0.125 mg/L; MIC [15]: 128 mg/L; MIC [16]: 128 mg/L; MIC (E. coli ATCC35218; ATCC35218, MHB, 5 × 10^5 CFU/mL, 16 h, 37 °C, read-out: MIC): < 0.125 mg/L; MIC (NDM-1 E. coli XJ141047 [17]): 32 mg/L; MIC [18, 28]: 32 mg/L; MIC (NDM-1 E. coli XJ141026 [19]): 16 mg/L; MIC (E. coli ATCC25922 [20]; ATCC25922, MHB, 5 × 10^5 CFU/mL, 16 h, 37 °C, read-out: MIC): < 0.125 mg/L; Kcat (NDM-1 [21]): 130.40 ± 2.67 s⁻¹; Km (NDM-1 [21]): 104 µM; Vmax (NDM-1 [21]): 0.13 ± 0.03 µM/s; bacterial count ([22]; Imp 25 μM, replicate 1, listed as Imp): 2.00E+11 CFU/mL and 11.30 Log10(CFU/mL); bacterial count ([22]; Imp 25 μM, replicate 2, listed as Imp): 9.50E+11 CFU/mL and 11.98 Log10(CFU/mL); bacterial count ([22]; Imp 25 μM, replicate 3, listed as Imp): 7.41E+10 CFU/mL and 10.87 Log10(CFU/mL); bacterial count ([22]; Imp 25 μM, replicate 4, listed as Imp): 5.75E+11 CFU/mL and 11.76 Log10(CFU/mL)"
C[C@@H](O)[C@H]1C(=O)N2C(C(=O)O)=C(S[C@@H]3CN[C@H](C(=O)N(C)C)C3)[C@H](C)[C@H]12 [Meropenem],> 8,R,> 8,R,≤ 1,S,> 8,R,> 8,R,> 8,R,> 8,R,> 8,R,≤ 1,S,≤ 1,synergistic or additive,"MIC [12]: > 256 mg/L; MIC (NDM-1 E. coli XJ141015 [13]): 64 mg/L; MIC (K. pneumoniae ATCC13883 [14]; ATCC13883, 16 h): < 0.125 mg/L; MIC [15]: 128 mg/L; MIC [16]: 128 mg/L; MIC (E. coli ATCC35218; ATCC35218, 16 h): < 0.125 mg/L; MIC (NDM-1 E. coli XJ141047 [17]): 64 mg/L; MIC [18]: 128 mg/L; MIC (NDM-1 E. coli XJ141026 [19]): 64 mg/L; MIC (E. coli ATCC25922 [20]; ATCC25922, 16 h): < 0.125 mg/L; Survival (number of mice) ([23]; Tha 0.1 mg/kg, Mem 10 mg/kg, Day 7): 4; survival rate ([23]; thanatin 0.1 mg/kg, meropenem 10 mg/kg): 30%; bacterial count ([22]; Mem 18 μM, replicate 1, listed as Mem): 11.61 Log10(CFU/mL) and 4.04E+11 CFU/mL; bacterial count ([22]; Mem 18 μM, replicate 2, listed as Mem): 12.11 Log10(CFU/mL) and 1.30E+12 CFU/mL; bacterial count ([22]; Mem 18 μM, replicate 3, listed as Mem): 11.93 Log10(CFU/mL) and 8.52E+11 CFU/mL; bacterial count ([22]; Mem 18 μM, replicate 4, listed as Mem): 10.88 Log10(CFU/mL) and 7.65E+10 CFU/mL; MIC (NDM-1 E. coli XJ141026 [24]; in the presence of sub-MIC thanatin): 18 µM; MIC (NDM-1 E. coli XJ141026 [24]; meropenem alone): 144 µM"
"GSKKPVPIIYCNRRTGKCQRM (disulfide 11-18, thanatin, inducible 21-residue insect peptide; source: synthetic peptide (solid-phase, Fmoc), purified by reverse-phase HPLC to over 98%) [Thanatin]",–,–,–,–,–,–,–,–,–,–,–,–,–,–,–,–,–,–,–,–,"Kd [25]: ~0.71 µM; inhibition of imipenem hydrolysis by purified NDM-1 (1 nM enzyme, 100 μM imipenem, 12 concentrations of thanatin), IC50 [26]: 3.21 µM; Ki [27]: 2.84 µM"
